Data: patent publication US11964972B2, “Salt form” (CRT Pioneer Fund LP, priority 2018, dated 2024)
Where two headings read alike, the source gives them in different places.

Tests used:
MPS1 kinase = molecular target: T1, MPS1 kinase (Homo sapiens, UniProt P33981); conditions: background statement; WO 2014/037750; cited from earlier work
T1 sequence (P33981 1-857): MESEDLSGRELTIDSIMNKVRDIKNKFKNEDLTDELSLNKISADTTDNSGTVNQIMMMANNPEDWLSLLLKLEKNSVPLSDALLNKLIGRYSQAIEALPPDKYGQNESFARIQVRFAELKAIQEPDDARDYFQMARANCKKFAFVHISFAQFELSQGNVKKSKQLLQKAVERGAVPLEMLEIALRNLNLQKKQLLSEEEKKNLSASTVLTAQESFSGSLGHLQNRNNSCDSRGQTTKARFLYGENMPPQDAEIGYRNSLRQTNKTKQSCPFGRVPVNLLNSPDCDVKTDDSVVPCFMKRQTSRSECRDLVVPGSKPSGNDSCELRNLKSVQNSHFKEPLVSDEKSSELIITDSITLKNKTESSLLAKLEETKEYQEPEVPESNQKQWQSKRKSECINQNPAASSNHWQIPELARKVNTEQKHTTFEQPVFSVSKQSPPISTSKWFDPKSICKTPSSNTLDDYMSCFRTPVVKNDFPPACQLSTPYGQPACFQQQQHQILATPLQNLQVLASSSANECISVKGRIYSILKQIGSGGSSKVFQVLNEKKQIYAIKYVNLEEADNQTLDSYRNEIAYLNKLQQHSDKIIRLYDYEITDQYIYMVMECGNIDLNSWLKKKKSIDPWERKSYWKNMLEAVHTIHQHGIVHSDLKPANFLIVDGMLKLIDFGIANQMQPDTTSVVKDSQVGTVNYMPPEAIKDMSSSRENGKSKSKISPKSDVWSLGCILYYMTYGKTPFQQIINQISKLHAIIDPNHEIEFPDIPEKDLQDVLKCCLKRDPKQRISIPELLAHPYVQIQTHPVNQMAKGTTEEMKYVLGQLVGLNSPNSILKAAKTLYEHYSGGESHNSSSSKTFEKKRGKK

[1] = Recrystallisation studies (XRPD form classification); format: physicochemical
Method: The ditosylate salt of the compound of formula I (about 100 mg) was suspended in a designated volume of water miscible solvent at a given temperature, followed by the addition of one volume aliquots of pre-heated water until dissolution was achieved. The agitated mixtures were then cooled to 20° C. and agitated for about 16 hours. […] Solvent, solvent ratios and form classification of the isolated solids are detailed in Table 2.

[2] = for Solubility: Form A, 37° C., minimum of 23 hours; for pH: pH of the aqueous mixture
Method: Crystalline ditosylate salt of the compound of formula I (about 40 mg, Form A) was suspended by gentle shaking in various aqueous buffers, biologically relevant media and formulation vehicles, 2×0.5 ml, at ambient temperature, ca 20° C. The mixtures were then heated to 37° C. with agitation for a minimum of 23 hours. The pH of the aqueous mixtures were also measured.
Table 1 presents the pH measurements and the solubility in various dissolution media.

[3] = 40° C. and 75% RH, 3 weeks
Method: The ditosylate salt of the compound of formula I was stored at 40° C. and 75% RH in loose screw top vials for 3 weeks.

[4] = Method: The ability of samples studied to absorb moisture (or not) over a set of well-determined humidity ranges was assessed. Sorption isotherms were obtained using a Hiden Isochema moisture sorption analyser (model IGAsorp), controlled by IGAsorp Systems Software V6.50.48. The sample was maintained at a constant temperature (25° C.) by the instrument controls. The humidity was controlled by mixing streams of dry and wet nitrogen, with a total flow of 250 ml·min^−1. The instrument was verified for relative humidity content by measuring three calibrated Rotronic salt solutions (10-50-88%). The weight change of the sample was monitored as a function of humidity by a microbalance (accuracy +/−0.005 mg). A defined amount of sample (typically 10-15 mg powder) was placed in a tared mesh stainless steel basket under ambient conditions. A full experimental cycle typically consisted of three scans (desorption, sorption, and desorption) at a constant temperature (25° C.) and 10% RH intervals over a 0-90% range (60 minutes for each humidity level). Solids are then held post cycle at 0% RH for 2-3 hours and tested by XRPD and the remainder held at 90% RH for 2-3 hours and re-tested by XRPD.
[5] = for XRPD classification: 20/40° C. cycling
Method: The equilibration of a solid in various solvents with temperature modulation is an accepted approach to investigate the form stability of a solid and the generation of alternate modifications, polymorphs/solvates of the material.
The ditosylate of the compound of formula I, 35 mg, was subjected to equilibration in various solvents with agitation at 20° C. for 90 hours, 40° C. for 3 hours, cooled to 20° C. over 3 hours, then heated to 40° C. for 16 hours and cooled to 20° C. The solvents were initially charged to the salts in aliquots, 0.25 ml, until dissolution was observed or a volume of 2 ml achieved. The solids were isolated by filtration and dried in vacuo at 50° C. for about 16 hours and then analysed by XRPD.

[6] = from 0 to 90% RH, 25° C., Form A

**Q.** With `CCOc1cc(-c2nncn2C)ccc1Nc1ncc2cc(C)nc(NCC(C)(C)C)c2n1` [compound I, N2-(2-ethoxy-4-(4-methyl-4H-1,2,4-triazol-3-yl)phenyl)-6-methyl-N8-neopentylpyrido[3,4-d]pyrimidine-2,8-diamine] as the molecule, how does the “MPS1 kinase inhibitory activity” value (MPS1 kinase) read?
**A.** potent MPS1 kinase inhibitory activity

**Q.** Which “Form stability on thermal manipulation (XRPD, DSC)” value ([1]; solid isolated from exclusively ethanol, FIG. 5, FIG. 6) does the source give for `CCOc1cc(-c2nncn2C)ccc1Nc1ncc2cc(C)nc(NCC(C)(C)C)c2n1.Cc1ccc(S(=O)(=O)O)cc1.Cc1ccc(S(=O)(=O)O)cc1` [ditosylate Form C, ditosylate salt of N2-(2-ethoxy-4-(4-methyl-4H-1,2,4-triazol-3-yl)phenyl)-6-methyl-N8-neopentylpyrido[3,4-d]pyrimidine-2,8-diamine Form C] here?
**A.** metastable form that could be thermally converted to ditosylate Form A

**Q.** For `CCOc1cc(-c2nncn2C)ccc1Nc1ncc2cc(C)nc(NCC(C)(C)C)c2n1.Cc1ccc(S(=O)(=O)O)cc1.Cc1ccc(S(=O)(=O)O)cc1` [ditosylate salt of N2-(2-ethoxy-4-(4-methyl-4H-1,2,4-triazol-3-yl)phenyl)-6-methyl-N8-neopentylpyrido[3,4-d]pyrimidine-2,8-diamine], which Solubility ([2]; FaSSIF) is on record?
**A.** 14210 µg/mL

**Q.** And the Solubility ([2]; FeSSIF)?
**A.** 1690 µg/mL

**Q.** And the Solubility ([2]; NaCl,0.9%/DMSO/Tween 20)?
**A.** 12690 µg/mL

**Q.** And the Solubility ([2]; PEG300)?
**A.** 2900 µg/mL

**Q.** What about the Solubility ([2]; Phosphate buffer) of the same molecule?
**A.** 2240 µg/mL

**Q.** And the Solubility ([2]; SFaGF)?
**A.** 5720 µg/mL

**Q.** And the Solubility ([2]; Sodium chloride 0.9% w/v)?
**A.** 9580 µg/mL

**Q.** And the Solubility ([2]; Water, deionised)?
**A.** 5850 µg/mL

**Q.** What about the pH ([2]; Acetate buffer) of the same molecule?
**A.** 4.33

**Q.** What about the pH ([2]; FaSSIF) of the same molecule?
**A.** 2.41

**Q.** And the pH ([2]; FeSSIF)?
**A.** 3.05

**Q.** What about the pH ([2]; NaCl,0.9%/DMSO/Tween 20) of the same molecule?
**A.** 1.97

**Q.** What about the pH ([2]; Phosphate buffer) of the same molecule?
**A.** 2.56

**Q.** What about the pH ([2]; SFaGF) of the same molecule?
**A.** 1.40

**Q.** What about the pH ([2]; Sodium chloride 0.9% w/v) of the same molecule?
**A.** 2.01

**Q.** And the pH ([2]; Water, deionised)?
**A.** 2.13

**Q.** And the “Chemical degradation after storage” value [3]?
**A.** no evidence of chemical degradation

**Q.** And the Hydration following storage [3]?
**A.** no evidence

**Q.** And the “Form modification after storage (XRPD)” value ([3]; FIG. 4)?
**A.** No evidence of form modification

**Q.** What about the “Change in appearance after storage” value ([3]; loose screw top vials) of the same molecule?
**A.** No change in appearance

**Q.** And the “Form change post DVS and at the extremes of humidity (XRPD)” value ([4]; 0% RH and 90% RH, FIG. 8)?
**A.** no evidence of form change

**Q.** What about the DVS profile ([4]; 0-90% RH, 25° C., Form A, FIG. 7) of the same molecule?
**A.** reversible water uptake over the humidity range and no hysteresis

**Q.** What about the Water uptake/loss [4, 6] of the same molecule?
**A.** 2.13%

**Q.** What about the “Water uptake/loss as equivalents of water” value [4, 6] of the same molecule?
**A.** about 1.0 equivalents of water

**Q.** What about the “XRPD Observations” value ([1]; 2-butanone 8 volumes, water 1 volume, 80 ° C.) of the same molecule?
**A.** Form A

**Q.** And the “XRPD Observations” value ([1]; 2-propanol 8 volumes, water 1 volume, 80 ° C.)?
**A.** Form A

**Q.** And the “XRPD Observations” value ([1]; Acetone 10 volumes, water 2 volumes, 60 ° C.)?
**A.** Form A

**Q.** And the “XRPD Observations” value ([1]; Acetonitrile 2 volumes, water 1 volume, 60 ° C.)?
**A.** Form A

**Q.** And the “XRPD Observations” value ([1]; Ethanol 2 volumes, water 1 volume, 60 ° C.)?
**A.** Form A

**Q.** What about the “XRPD Observations” value ([1]; Ethanol 15 volumes, no water, 80 ° C.) of the same molecule?
**A.** Form C

**Q.** And the XRPD classification ([5]; equilibration in 1,4-Dioxane)?
**A.** Form A

**Q.** And the XRPD classification ([5]; equilibration in 1-Butanol)?
**A.** Form A

**Q.** What about the XRPD classification ([5]; equilibration in 2-Chlorobutane) of the same molecule?
**A.** Form A

**Q.** What about the XRPD classification ([5]; equilibration in 2-Methyltetrahydrofuran) of the same molecule?
**A.** Form A

**Q.** And the XRPD classification ([5]; equilibration in 2-Propanol)?
**A.** Form A

**Q.** What about the XRPD classification ([5]; equilibration in 3-Methyl-1-butanol) of the same molecule?
**A.** Form A

**Q.** And the XRPD classification ([5]; equilibration in Acetonitrile)?
**A.** Form A

**Q.** And the XRPD classification ([5]; equilibration in Chlorobenzene)?
**A.** Form A

**Q.** What about the XRPD classification ([5]; equilibration in Ethyl acetate) of the same molecule?
**A.** Form A

**Q.** And the XRPD classification ([5]; equilibration in Heptane)?
**A.** Form A

**Q.** What about the XRPD classification ([5]; equilibration in Isopropyl acetate) of the same molecule?
**A.** Form A

**Q.** What about the XRPD classification ([5]; equilibration in Methanol) of the same molecule?
**A.** Form A

**Q.** What about the XRPD classification ([5]; equilibration in Methyl isobutyl ketone) of the same molecule?
**A.** Form A

**Q.** And the XRPD classification ([5]; equilibration in Methylcyclohexane)?
**A.** Form A

**Q.** And the XRPD classification ([5]; equilibration in Nitromethane)?
**A.** Form A

**Q.** What about the XRPD classification ([5]; equilibration in TBME) of the same molecule?
**A.** Form A

**Q.** What about the XRPD classification ([5]; equilibration in Toluene) of the same molecule?
**A.** Form A

**Q.** What about the XRPD classification ([5]; equilibration in Trifluorotoluene) of the same molecule?
**A.** Form A

**Q.** What about the XRPD classification ([5]; equilibration in Water) of the same molecule?
**A.** Form A

**Q.** And the XRPD classification ([5]; equilibration in n-Butyl acetate)?
**A.** Form A

**Q.** And the “Propensity to exhibit version or polymorphic variance” value ([5]; summary of the polymorphism studies)?
**A.** remarkable lack of propensity to exhibit version or polymorphic variance
